One may read the pIC50 as the negative decadic logarithm of the IC50, by convention in mol/L.

pIC50: −log10 of the molar value.

Chain of human kinase Mps-1 (P33981 whole entry): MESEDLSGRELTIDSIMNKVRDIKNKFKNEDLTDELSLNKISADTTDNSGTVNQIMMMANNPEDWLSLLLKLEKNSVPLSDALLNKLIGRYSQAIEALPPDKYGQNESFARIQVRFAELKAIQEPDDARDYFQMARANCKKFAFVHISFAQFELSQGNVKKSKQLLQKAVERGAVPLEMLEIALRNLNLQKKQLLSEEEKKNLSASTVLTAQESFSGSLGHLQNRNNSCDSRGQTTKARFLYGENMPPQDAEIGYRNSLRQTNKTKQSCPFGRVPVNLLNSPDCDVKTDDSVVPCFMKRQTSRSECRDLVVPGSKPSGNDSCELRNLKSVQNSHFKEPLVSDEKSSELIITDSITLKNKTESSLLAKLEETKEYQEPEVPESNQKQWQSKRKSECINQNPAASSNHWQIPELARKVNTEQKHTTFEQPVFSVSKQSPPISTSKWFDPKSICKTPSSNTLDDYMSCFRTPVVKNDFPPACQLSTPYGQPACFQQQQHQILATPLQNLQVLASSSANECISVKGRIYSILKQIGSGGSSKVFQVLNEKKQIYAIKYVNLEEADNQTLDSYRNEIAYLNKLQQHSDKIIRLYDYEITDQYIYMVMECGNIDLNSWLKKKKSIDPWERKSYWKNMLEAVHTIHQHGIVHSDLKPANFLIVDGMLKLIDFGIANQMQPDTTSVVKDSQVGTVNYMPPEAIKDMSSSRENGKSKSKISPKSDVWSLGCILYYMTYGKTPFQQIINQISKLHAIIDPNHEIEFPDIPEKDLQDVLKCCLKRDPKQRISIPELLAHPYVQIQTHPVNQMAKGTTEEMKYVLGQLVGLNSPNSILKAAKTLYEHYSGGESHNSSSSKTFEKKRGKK

For the assay, the target named is human kinase Mps-1 (Homo sapiens (Human), UniProt P33981). The experiment in a line: Mps-1 kinase assay (TR-FRET). The format is biochemical. The conditions noted are these: N-terminally GST-tagged human full length recombinant Mps-1; 10 μM ATP; 1 μM biotinylated peptide substrate; read-out: Mps1 IC50. How it is done:
The human kinase Mps-1 phosphorylates a biotinylated substrate peptide. Detection of the phosphorylated product is achieved by time-resolved fluorescence resonance energy transfer (TR-FRET) from Europium-labelled anti-phospho-Serine/Threonine antibody as donor to streptavidin labelled with cross-linked allophycocyanin (SA-XLent) as acceptor. Compounds are tested for their inhibition of the kinase activity.
N-terminally GST-tagged human full length recombinant Mps-1 kinase (purchased from Invitrogen, Karslruhe, Germany, cat. no PV4071) was used. As substrate for the kinase reaction a biotinylated peptide of the amino-acid sequence […] (C-terminus in amide form, purchased from Biosynthan GmbH, Berlin) was used.
The concentration of Mps-1 in the assay was adjusted to the activity of the enzyme lot and was chosen appropriate to have the assay in the linear range, typical enzyme concentrations were in the range of about 1 nM (final conc. in the 5 μl assay volume).
The resulting mixture was incubated 1 h at 22° C. to allow the binding of the phosphorylated peptide to the anti-phospho(Ser/Thr)-Europium-antibody. Subsequently the amount of phosphorylated substrate was evaluated by measurement of the resonance energy transfer from the Europium-labelled anti-phospho(Ser/Thr) antibody to the Streptavidin-XLent.
On the technique in general: Time-resolved FRET reads energy transfer from a long-lived donor to a nearby acceptor.
Consider `CNC(=O)c1ccc(-n2cnc3c(NCC4CCOCC4)cc(Oc4ccc(OC)cc4SC)cc32)cc1C` [Example 115B, 4-{6-[4-methoxy-2-(methylsulfanyl)phenoxy]-4-[(tetrahydro-2H-pyran-4-ylmethyl)amino]-1H-benzimidazol-1-yl}-N,2-dimethylbenzamide], for which the negative-log IC50 (pIC50) was 7.54.
With `CCNC(=O)c1ccc(-n2cnc3c(NCC4CCOCC4)cc(Oc4ccc(O)cc4F)cc32)cc1C` [Example 117A, N-ethyl-4-{6-(2-fluoro-4-hydroxyphenoxy)-4-[(tetrahydro-2H-pyran-4-ylmethyl)amino]-1H-benzimidazol-1-yl}-2-methylbenzamide], the pIC50 is 8.17.
Consider `Cc1ccc(F)cc1Nc1cc(NCCC(F)(F)F)c2ncn(-c3ccc(C(=O)NC4CC4)c(C)c3)c2c1` [Example 3, N-Cyclopropyl-4-{6-[(5-fluoro-2-methylphenyl)amino]-4-[(3,3,3-trifluoropropyl)amino]-1H-benzimidazol-1-yl}-2-methylbenzamide], for which the negative logarithm of the IC50 (pIC50) was 8.82.
On to `CNC(=O)c1ccc(-n2cnc3c(NCCC(F)(F)F)cc(Oc4cccc(F)c4)cc32)cc1C` [Example 10, 4-{6-(3-Fluorophenoxy)-4-[(3,3,3-trifluoropropyl)amino]-1H-benzimidazol-1-yl}-N,2-dimethylbenzamide], for which the negative logarithm of the IC50 (pIC50) was 8.33.
As for `Cc1cc(-n2cnc3c(NCC4CCOCC4)cc(Oc4ccc(F)c(F)c4)cc32)ccc1C(=O)NC1CC1` [Example 17, N-cyclopropyl-4-{6-(3,4-difluorophenoxy)-4-[(tetrahydro-2H-pyran-4-ylmethyl)amino]-1H-benzimidazol-1-yl}-2-methylbenzamide], the figure is 8.96; as for `Cc1cc(-n2cnc3c(NCCC(F)(F)F)cc(Oc4ccc(-c5ncco5)cc4)cc32)ccc1C(=O)NC1CC1` [Example 75, N-cyclopropyl-2-methyl-4-{6-[4-(1,3-oxazol-2-yl)phenoxy]-4-[(3,3,3-trifluoropropyl)amino]-1H-benzimidazol-1-yl}benzamide], 7.66; as for `CCNC(=O)c1ccc(-n2cnc3c(NCCC(F)(F)F)cc(Oc4ccc(OCc5ccccc5)cc4)cc32)cc1C` [Example 46, 4-{6-[4-(Benzyloxy)phenoxy]-4-[(3,3,3-trifluoropropyl)amino]-1H-benzimidazol-1-yl}-N-ethyl-2-methylbenzamide], 7.00.
With `CNC(=O)c1ccc(-n2cnc3c(NCCC(F)(F)F)cc(Oc4ccc(OC)cc4F)cc32)cc1C` [Example 88, 4-{6-(2-fluoro-4-methoxyphenoxy)-4-[(3,3,3-trifluoropropyl)amino]-1H-benzimidazol-1-yl}-N,2-dimethylbenzamide], the pIC50 was 8.17.
Consider `CCNC(=O)c1ccc(-n2cnc3c(NCC4CCOCC4)cc(Oc4ccc(OC)cc4SC)cc32)cc1C` [Example 117B, N-ethyl-4-[6-{4-methoxy-2-(methylsulfanyl)phenoxy]-4-[(tetrahydro-2H-pyran-4-ylmethyl)amino]-1H-benzimidazol-1-yl}-2-methylbenzamide], for which the pIC50 is 7.59.
As to `CCNC(=O)c1ccc(-n2cnc3c(NCC4CCOCC4)cc(Oc4ccc(O)c(F)c4)cc32)cc1C` [Example 113A, N-ethyl-4-{6-(3-fluoro-4-hydroxyphenoxy)-4-[(tetrahydro-2H-pyran-4-ylmethyl)amino]-1H-benzimidazol-1-yl}-2-methylbenzamide], the negative logarithm of the IC50 (pIC50) is 8.20.
In the case of `Cc1cc(-n2cnc3c(NCCC(F)(F)F)cc(Oc4ccc(Cl)c(F)c4)cc32)ccc1C(=O)NC1CC1` [Example 28, 4-{6-(4-Chloro-3-fluorophenoxy)-4-[(3,3,3-trifluoropropyl)amino]-1H-benzimidazol-1-yl}-N-cyclopropyl-2-methylbenzamide] it was 8.51; in that of `CCNC(=O)c1ccc(-n2cnc3c(NCCC(F)(F)F)cc(Oc4ccccc4OC)cc32)cc1C` [Example 40, N-ethyl-4-{6-(2-methoxyphenoxy)-4-[(3,3,3-trifluoropropyl)amino]-1H-benzimidazol-1-yl}-2-methylbenzamide], 7.24.
Regarding `CCNC(=O)c1ccc(-n2cnc3c(NCCC(F)(F)F)cc(Oc4ccc(O)cc4)cc32)cc1C` [Example 49, N-ethyl-4-{6-(4-hydroxyphenoxy)-4-[(3,3,3-trifluoropropyl)amino]-1H-benzimidazol-1-yl}-2-methylbenzamide], the pIC50 was 8.26.
For `Cc1cc(-n2cnc3c(NCCC(F)(F)F)cc(Oc4cccc(OC(F)(F)F)c4)cc32)ccc1C(=O)NC1CC1` [Example 59, N-cyclopropyl-2-methyl-4-{6-[3-(trifluoromethoxy)phenoxy]-4-[(3,3,3-trifluoropropyl)amino]-1H-benzimidazol-1-yl}benzamide], the pIC50 is 7.92.
As to `CNC(=O)c1ccc(-n2cnc3c(NCCC(F)(F)F)cc(Oc4ccc(OCc5ccccc5)cc4)cc32)cc1C` [Example 47, 4-{6-[4-(Benzyloxy)phenoxy]-4-[(3,3,3-trifluoropropyl)amino]-1H-benzimidazol-1-yl}-N,2-dimethylbenzamide], the negative-log IC50 (pIC50) was 7.00.
In the case of `CC(C)CNc1cc(Br)cc2c1ncn2-c1ccc(C(=O)NC2CC2)cc1` [Example 6, 4-{6-bromo-4-[(2-methylpropyl)amino]-1H-benzimidazol-1-yl}-N-cyclopropylbenzamide], the pIC50 was 7.78.
As for `Cc1cc(-n2cnc3c(NCCC(F)(F)F)cc(Oc4ccc(O)cc4F)cc32)ccc1C(=O)NC1CC1` [Example 90, N-cyclopropyl-4-{6-(2-fluoro-4-hydroxyphenoxy)-4-[(3,3,3-trifluoropropyl)amino]-1H-benzimidazol-1-yl}-2-methylbenzamide], the figure is 8.96.
As for `COc1ccc(Oc2cc(NCCC(F)(F)F)c3ncn(-c4ccc(C(=O)NC5CC5)c(C)c4)c3c2)cc1F` [Example 33, N-cyclopropyl-4-{6-(3-fluoro-4-methoxyphenoxy)-4-[(3,3,3-trifluoropropyl)amino]-1H-benzimidazol-1-yl}-2-methylbenzamide], the negative logarithm of the IC50 (pIC50) is 9.15.
In the case of `CNC(=O)c1ccc(-n2cnc3c(NCCC(F)(F)F)cc(Oc4cccc(F)c4O)cc32)cc1C` [Example 92, 4-{6-(3-fluoro-2-hydroxyphenoxy)-4-[(3,3,3-trifluoropropyl)amino]-1H-benzimidazol-1-yl}-N,2-dimethylbenzamide] it was 8.52.
Turning to `CNC(=O)c1ccc(-n2cnc3c(NCC4CCOCC4)cc(Oc4cccc(F)c4F)cc32)cc1C` [Example 84, 4-{6-(2,3-difluorophenoxy)-4-[(tetrahydro-2H-pyran-4-ylmethyl)amino]-1H-benzimidazol-1-yl}-N,2-dimethylbenzamide], the negative logarithm of the IC50 (pIC50) is 8.47.
As for `COc1ccc(C(O)c2cc(NCCC(F)(F)F)c3ncn(-c4ccc(C(=O)NC5CC5)c(C)c4)c3c2)cc1F` (stereo not shown) [Example 102, N-cyclopropyl-4-{6-[(3-fluoro-4-methoxyphenyl)(hydroxy)methyl]-4-[(3,3,3-trifluoropropyl)amino]-1H-benzimidazol-1-yl}-2-methylbenzamide], the figure is 8.74; as for `Cc1cc(-n2cnc3c(NCCC(F)(F)F)cc(Oc4cccc(F)c4)cc32)ccc1C(=O)NC1(C#N)CC1` [Example 13, N-(1-cyanocyclopropyl)-4-{6-(3-fluorophenoxy)-4-[(3,3,3-trifluoropropyl)amino]-1H-benzimidazol-1-yl}-2-methylbenzamide], 7.31.
Take `COc1ccc(Oc2cc(NCC3CCOCC3)c3ncn(-c4ccc(C(=O)NC5CC5)c(C)c4)c3c2)cc1F` [Example 44, N-cyclopropyl-4-{6-(3-fluoro-4-methoxyphenoxy)-4-[(tetrahydro-2H-pyran-4-ylmethyl)amino]-1H-benzimidazol-1-yl}-2-methylbenzamide]: the negative-log IC50 (pIC50) is 9.15.
Regarding `COc1ccc(Oc2cc(NCCC(F)(F)F)c3ncn(-c4ccc(C(=O)NC5CC5)c(C)c4)c3c2)c(F)c1` [Example 29, N-cyclopropyl-4-{6-(2-fluoro-4-methoxyphenoxy)-4-[(3,3,3-trifluoropropyl)amino]-1H-benzimidazol-1-yl}-2-methylbenzamide], the pIC50 was 9.05.
In the case of `Cc1cc(-n2cnc3c(NCC4CCOCC4)cc(Oc4ccc(Cl)cc4)cc32)ccc1C(=O)NC1CC1` [Example 23, 4-{6-(4-Chlorophenoxy)-4-[(tetrahydro-2H-pyran-4-ylmethyl)amino]-1H-benzimidazol-1-yl}-N-cyclopropyl-2-methylbenzamide] it was 8.66; in that of `COc1ccc(Oc2cc(NCC3CCOCC3)c3ncn(-c4ccc(C(=O)NC5CC5)c(C)c4)c3c2)cc1SC` [Example 114B, N-cyclopropyl-4-{6-[4-methoxy-3-(methylsulfanyl)phenoxy]-4-[(tetrahydro-2H-pyran-4-ylmethyl)amino]-1H-benzimidazol-1-yl}-2-methylbenzamide], 8.17.
As for `CNC(=O)c1ccc(-n2cnc3c(NCC4CCOCC4)cc(Oc4ccc(OC)cc4F)cc32)cc1C` [Example 86, 4-{6-(2-fluoro-4-methoxyphenoxy)-4-[(tetrahydro-2H-pyran-4-ylmethyl)amino]-1H-benzimidazol-1-yl}-N,2-dimethylbenzamide], the figure is 8.15.
On to `CNC(=O)c1ccc(-n2cnc3c(NCCC(F)(F)F)cc(Oc4ccccc4O)cc32)cc1C` [Example 56, 4-{6-(2-hydroxyphenoxy)-4-[(3,3,3-trifluoropropyl)amino]-1H-benzimidazol-1-yl}-N,2-dimethylbenzamide], for which the pIC50 is 9.52.

The values above are taken from patent US9388140B2, “Substituted benzimidazoles” (priority 2011, dated 2016).
